One compound from the kinase profiling compilation of Christmann-Franck et al. (2016) can be followed below.

Settings in all cases: compound 10.0 µM
Assay [1] has as its system PIK3CA (human), P42336 [I800L].
The test system of assay [2] is EGFR (human), P00533 [G719C].
Assay [3] deals with PIK3CA (human), P42336 [Q546K].
In assay [4] the test system is EGFR (human), P00533 [747-751 del / S ins].
Assay [5] concerns the target TIE1 (human) (UniProt P35590).
Assay [6] relates to EGFR (human), P00533 [L861Q].
For assay [7], the system named is KIT (human), P10721 [D816H].
In assay [8] the target is MYLK3 (human) (UniProt Q32MK0).
Assay [9] has as its target KDR (human) (UniProt P35968).
The target of assay [10] is CLK2 (human) (UniProt P49760).
Assay [11] concerns EGFR (human), P00533 [A750P; 747-749 del].
Assay [12] deals with EGFR (human), P00533 [L858R].
Assay [13] has as its target LCK (human) (UniProt P06239).
Assay [14] concerns EGFR (human), P00533 [G719S].
Assay [15] addresses CDK8 (human) (UniProt P49336).

PIK3CA (human), P42336 [Q546K], sequence (P42336 whole entry Q546K, looked up): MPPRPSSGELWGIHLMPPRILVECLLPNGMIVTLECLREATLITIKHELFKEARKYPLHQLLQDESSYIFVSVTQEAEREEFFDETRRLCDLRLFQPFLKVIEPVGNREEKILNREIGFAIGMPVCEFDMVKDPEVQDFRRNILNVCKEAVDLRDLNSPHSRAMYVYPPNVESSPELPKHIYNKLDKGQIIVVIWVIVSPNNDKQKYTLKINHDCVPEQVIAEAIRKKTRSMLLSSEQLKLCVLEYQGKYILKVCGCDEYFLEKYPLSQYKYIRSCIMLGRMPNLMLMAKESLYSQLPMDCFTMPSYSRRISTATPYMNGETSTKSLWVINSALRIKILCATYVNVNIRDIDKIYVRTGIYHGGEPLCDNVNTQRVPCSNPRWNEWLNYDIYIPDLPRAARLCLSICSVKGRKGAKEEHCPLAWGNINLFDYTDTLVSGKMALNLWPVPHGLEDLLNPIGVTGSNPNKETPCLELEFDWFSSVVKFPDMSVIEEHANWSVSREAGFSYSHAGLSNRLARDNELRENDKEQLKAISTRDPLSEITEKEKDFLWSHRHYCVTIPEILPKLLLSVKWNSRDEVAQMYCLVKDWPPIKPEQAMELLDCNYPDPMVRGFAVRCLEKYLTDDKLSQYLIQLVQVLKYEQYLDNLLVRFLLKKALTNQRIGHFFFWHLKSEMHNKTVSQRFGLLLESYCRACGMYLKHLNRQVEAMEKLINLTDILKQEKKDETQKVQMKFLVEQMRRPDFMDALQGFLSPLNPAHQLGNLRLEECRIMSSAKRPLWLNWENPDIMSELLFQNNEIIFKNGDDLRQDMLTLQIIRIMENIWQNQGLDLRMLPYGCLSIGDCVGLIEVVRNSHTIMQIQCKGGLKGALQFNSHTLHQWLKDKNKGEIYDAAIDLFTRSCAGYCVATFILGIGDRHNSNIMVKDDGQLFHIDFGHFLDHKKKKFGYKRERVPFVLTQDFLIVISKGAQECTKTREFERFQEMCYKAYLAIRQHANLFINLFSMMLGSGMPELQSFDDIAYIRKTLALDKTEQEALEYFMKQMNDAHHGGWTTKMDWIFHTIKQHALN
TIE1 (human), sequence (P35590 whole entry, looked up): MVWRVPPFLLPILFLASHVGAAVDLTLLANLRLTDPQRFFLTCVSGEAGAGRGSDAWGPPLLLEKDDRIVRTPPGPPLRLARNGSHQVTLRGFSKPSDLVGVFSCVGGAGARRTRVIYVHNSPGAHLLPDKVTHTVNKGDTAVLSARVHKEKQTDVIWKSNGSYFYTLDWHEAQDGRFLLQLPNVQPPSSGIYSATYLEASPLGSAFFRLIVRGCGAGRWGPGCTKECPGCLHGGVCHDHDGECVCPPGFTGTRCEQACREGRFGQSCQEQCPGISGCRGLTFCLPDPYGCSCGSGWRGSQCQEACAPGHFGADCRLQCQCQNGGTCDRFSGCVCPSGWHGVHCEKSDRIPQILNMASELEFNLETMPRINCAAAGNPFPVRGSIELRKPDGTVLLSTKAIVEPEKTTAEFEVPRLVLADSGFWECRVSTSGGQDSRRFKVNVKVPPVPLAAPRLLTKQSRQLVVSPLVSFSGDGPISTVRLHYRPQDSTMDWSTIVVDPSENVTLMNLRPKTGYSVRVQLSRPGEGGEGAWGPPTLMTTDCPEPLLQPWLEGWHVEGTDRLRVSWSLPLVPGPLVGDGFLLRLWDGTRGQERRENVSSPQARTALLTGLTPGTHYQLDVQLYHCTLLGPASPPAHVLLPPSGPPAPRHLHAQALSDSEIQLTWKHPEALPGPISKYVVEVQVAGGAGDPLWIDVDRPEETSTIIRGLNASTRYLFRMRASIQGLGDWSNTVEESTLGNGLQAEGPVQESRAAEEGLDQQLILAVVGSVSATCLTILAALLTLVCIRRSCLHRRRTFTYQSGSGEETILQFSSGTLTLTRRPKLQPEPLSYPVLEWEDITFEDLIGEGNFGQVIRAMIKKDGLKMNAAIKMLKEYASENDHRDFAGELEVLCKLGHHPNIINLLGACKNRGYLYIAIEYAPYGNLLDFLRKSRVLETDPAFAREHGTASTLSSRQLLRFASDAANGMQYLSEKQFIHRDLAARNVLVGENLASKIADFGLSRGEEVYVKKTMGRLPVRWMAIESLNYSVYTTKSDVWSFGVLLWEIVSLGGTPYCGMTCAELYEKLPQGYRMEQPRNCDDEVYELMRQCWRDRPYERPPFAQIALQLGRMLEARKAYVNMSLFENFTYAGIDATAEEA
PIK3CA (human), P42336 [I800L], sequence (P42336 whole entry I800L, looked up): as the sequence (P42336 whole entry Q546K, looked up) above, with K546Q, I800L counted along it
KDR (human), sequence (P35968 whole entry, looked up): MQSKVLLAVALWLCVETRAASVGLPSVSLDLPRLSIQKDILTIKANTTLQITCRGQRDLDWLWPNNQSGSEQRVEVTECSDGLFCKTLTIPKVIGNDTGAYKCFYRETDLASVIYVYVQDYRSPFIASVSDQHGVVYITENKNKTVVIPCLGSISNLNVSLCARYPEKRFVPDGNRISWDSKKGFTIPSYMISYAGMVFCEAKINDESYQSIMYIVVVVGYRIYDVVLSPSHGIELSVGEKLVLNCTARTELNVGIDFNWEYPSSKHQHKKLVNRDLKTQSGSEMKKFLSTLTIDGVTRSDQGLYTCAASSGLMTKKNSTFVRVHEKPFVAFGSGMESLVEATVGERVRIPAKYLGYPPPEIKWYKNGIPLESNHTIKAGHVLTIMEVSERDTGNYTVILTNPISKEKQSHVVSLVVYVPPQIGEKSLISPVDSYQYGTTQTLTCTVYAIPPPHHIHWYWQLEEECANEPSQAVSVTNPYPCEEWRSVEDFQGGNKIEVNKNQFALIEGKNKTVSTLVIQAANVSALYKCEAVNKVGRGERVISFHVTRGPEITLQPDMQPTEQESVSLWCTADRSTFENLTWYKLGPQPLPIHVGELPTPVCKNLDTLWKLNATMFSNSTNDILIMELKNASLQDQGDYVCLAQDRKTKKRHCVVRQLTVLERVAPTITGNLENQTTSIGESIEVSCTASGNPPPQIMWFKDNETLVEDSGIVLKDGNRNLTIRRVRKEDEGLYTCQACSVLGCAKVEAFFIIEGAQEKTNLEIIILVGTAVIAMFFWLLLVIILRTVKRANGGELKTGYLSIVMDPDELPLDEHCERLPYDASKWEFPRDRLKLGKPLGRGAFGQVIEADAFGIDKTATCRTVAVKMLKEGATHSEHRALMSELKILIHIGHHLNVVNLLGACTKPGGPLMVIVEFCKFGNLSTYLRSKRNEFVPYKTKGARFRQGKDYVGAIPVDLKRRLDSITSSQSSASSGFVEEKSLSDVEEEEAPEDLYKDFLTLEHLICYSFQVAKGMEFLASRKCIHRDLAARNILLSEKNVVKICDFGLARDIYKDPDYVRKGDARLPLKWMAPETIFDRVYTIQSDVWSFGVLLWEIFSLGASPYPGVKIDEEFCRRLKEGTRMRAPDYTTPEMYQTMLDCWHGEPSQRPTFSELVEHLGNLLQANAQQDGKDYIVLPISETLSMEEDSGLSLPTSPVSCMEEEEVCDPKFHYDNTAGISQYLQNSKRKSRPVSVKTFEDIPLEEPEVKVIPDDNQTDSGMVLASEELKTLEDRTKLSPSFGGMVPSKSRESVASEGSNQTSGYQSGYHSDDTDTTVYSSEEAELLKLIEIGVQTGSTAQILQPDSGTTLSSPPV
KIT (human), P10721 [D816H], sequence (P10721 whole entry D816H, looked up): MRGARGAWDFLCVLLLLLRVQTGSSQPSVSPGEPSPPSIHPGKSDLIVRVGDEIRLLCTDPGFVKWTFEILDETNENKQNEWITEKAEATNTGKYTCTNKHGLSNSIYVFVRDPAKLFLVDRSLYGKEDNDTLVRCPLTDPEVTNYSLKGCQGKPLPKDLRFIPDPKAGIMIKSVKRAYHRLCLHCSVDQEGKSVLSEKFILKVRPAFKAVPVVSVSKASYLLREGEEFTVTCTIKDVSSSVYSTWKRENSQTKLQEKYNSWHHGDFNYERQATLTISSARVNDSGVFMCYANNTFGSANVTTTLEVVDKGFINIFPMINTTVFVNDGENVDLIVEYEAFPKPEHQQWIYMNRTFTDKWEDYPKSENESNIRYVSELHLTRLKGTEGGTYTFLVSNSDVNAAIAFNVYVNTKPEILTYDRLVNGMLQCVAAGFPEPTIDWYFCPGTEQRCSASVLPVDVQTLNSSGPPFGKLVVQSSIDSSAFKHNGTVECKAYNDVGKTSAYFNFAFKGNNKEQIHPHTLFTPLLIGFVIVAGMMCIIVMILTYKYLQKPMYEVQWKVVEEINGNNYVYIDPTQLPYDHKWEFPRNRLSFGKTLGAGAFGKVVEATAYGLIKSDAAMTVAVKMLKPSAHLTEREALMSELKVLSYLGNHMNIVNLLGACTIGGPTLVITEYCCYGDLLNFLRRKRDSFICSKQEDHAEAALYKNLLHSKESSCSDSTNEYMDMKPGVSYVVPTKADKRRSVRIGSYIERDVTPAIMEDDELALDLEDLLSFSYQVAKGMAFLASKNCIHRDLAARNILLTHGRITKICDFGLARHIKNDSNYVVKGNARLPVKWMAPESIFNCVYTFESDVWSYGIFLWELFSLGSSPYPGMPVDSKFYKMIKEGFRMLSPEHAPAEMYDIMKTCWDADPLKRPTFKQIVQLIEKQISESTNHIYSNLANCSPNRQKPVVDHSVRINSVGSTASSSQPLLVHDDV
LCK (human), sequence (P06239 whole entry, looked up): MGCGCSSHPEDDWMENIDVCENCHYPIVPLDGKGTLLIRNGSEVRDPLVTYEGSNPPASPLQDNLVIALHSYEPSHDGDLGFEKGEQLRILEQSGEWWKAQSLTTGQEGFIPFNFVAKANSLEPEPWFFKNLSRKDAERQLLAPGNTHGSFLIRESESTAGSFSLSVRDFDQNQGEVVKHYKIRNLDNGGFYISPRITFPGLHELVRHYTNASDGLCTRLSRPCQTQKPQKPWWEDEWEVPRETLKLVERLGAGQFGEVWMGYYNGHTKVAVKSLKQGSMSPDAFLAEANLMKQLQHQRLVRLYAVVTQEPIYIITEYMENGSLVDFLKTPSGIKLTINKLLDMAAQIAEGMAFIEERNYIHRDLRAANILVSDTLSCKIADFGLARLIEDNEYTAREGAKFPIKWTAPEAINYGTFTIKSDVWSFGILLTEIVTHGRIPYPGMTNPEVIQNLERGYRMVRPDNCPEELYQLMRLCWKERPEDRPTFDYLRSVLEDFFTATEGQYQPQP

As to `CNC(=O)c1cc(Oc2ccc(NC(=O)Nc3ccc(Cl)c(C(F)(F)F)c3)cc2)cc[n+]1[O-]`, the per cent of control in assay [1] turned out to be 100%; in assay [2], 80%; in assay [3], 100%; in assay [4], 76%; in assay [5] it was 0.3%; in assay [6] it was 74%. For the same compound, the per cent of control is 17% in assay [7]; 2.8% in assay [8]; 0.4% in assay [9]; 80% in assay [10]; 70% in assay [11]; 88% in [12]. In addition, the per cent of control worked out at 2.5% in [13], 100% in assay [14] and 0.6% in assay [15].
